Series [1] has as its target T1, bacterial transglutaminase (BTG) (Streptomyces mobaraensis, UniProt P81453).
T1 construct: purchased Zedira, Darmstadt, Germany
T1 sequence (P81453 77-407): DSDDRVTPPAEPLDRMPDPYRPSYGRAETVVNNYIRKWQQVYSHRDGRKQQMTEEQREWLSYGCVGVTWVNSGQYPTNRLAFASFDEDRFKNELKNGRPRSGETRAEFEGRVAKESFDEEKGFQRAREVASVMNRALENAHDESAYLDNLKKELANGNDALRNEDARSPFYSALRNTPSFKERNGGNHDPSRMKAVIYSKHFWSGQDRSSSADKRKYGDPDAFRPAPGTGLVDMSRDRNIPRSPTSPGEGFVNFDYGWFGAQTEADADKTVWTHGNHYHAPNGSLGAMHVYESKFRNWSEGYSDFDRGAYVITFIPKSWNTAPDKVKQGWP
It is filed as biochemical. As to conditions: for BTG coupling, result in words: chADC1 N297S and chSGN35 N297S, 18.5 h.

For series [2] the following is noted: cited from earlier work.
A short description of series [3]: Solubility in water / aqueous buffer. As to conditions: aqueous buffer containing a maximum of 10% DMSO. It is filed as physicochemical.
Where [4] appears, read: chADC1 N297S, 80 eq ligand, 6 U/ml BTG, 1 mg/ml mAb, 37° C.
Where [5] appears, read: PNGaseF-deglycosylated chADC1, 6 U/mL BTG (optimized: 80 eq ligand, 1 mg/ml mAb, 37° C.).
Setting [6] is: PNGaseF-deglycosylated chADC1, 80 eq ligand, 6 U/ml BTG, 1 mg/ml mAb, 37° C.
Where [7] appears, read: PNGaseF-deglycosylated chADC1, standard conditions, 1 U/mL BTG.
[8] abbreviates: PNGaseF-deglycosylated chCE7, 80 eq ligand, 6 U/ml BTG, 1 mg/ml mAb, 37° C.
Where [9] appears, read: chADC1 N297Q (two acceptor glutamines per heavy chain), 80 eq ligand, 6 U/ml BTG, 1 mg/ml mAb, 37° C.

The values below come from US9717803B2, “Enzymatic conjugation of polypeptides” (Innate Pharma, priority 2011, dated 2017).

“Also recorded” adds a separate entry of the source. Where two headings read alike, the source gives them in different places.

`[N-]=[N+]=NCCOCCOCCOCCOCCN` [Azide-PEG4-NH2, reference compound]: the “BTG coupling to two glutamines per heavy chain, result in words” value in series [1] (chADC1 N297Q, 80 eq ligand, 6 U/ml BTG, 1 mg/ml mAb, 37° C.) is recorded as “complete coupling to two glutamines on all heavy chains”. Further, the “BTG coupling to heavy chain, result in words” value (shortened to “BTG coupling to heavy chain”) in series [1] (setting [4]) was “quantitative”.

Take `NCCCCCNC(=O)CSC1CC(=O)N(CCNC(=O)CN2CCN(CC(=O)O)CCN(CC(=O)O)CCN(CC(=O)O)CC2)C1=O` (stereo not shown) [C2-DOTA, 2,2′,2″-(10-(2-((2-(3-((2-((5-aminopentyl)amino)-2-oxoethyl)thio)-2,5-dioxopyrrolidin-1-yl)ethyl)-amino)-2-oxoethyl)-1,4,7,10-tetraazacyclododecane-1,4,7-triyl)triacetic acid]: the figures for the “BTG coupling to heavy chain” value in series [1] (setting [5]), in series [1] (setting [7]) and in series [1] (setting [4]) were “minor peak modified chADC1 heavy chain”, “only unmodified chADC1 heavy chain” and “quantitative coupling could not be accomplished”, respectively. For the same compound, the “heavy chain with one linker coupled (LC-MS peak)” value in series [1] (setting [6]) is listed as 30%. Also, the “unmodified heavy chain (LC-MS peak)” value in series [1] (setting [6]) came out at 70%.

Regarding `NCCCCCNC(=O)CCCCCSC1CC(=O)N(CCNC(=O)CN2CCN(CC(=O)O)CCN(CC(=O)O)CCN(CC(=O)O)CC2)C1=O` (stereo not shown) [C6-DOTA, 2,2′,2″-(10-(2-((2-(3-((6-((5-aminopentyl)amino)-6-oxohexyl)thio)-2,5-dioxopyrrolidin-1-yl)ethyl)-amino)-2-oxoethyl)-1,4,7,10-tetraazacyclododecane-1,4,7-triyl)triacetic acid], the “unmodified heavy chain (LC-MS peak)” value in series [1] (setting [6]) was found to be 30%. In addition, in series [1] (setting [4]), the “BTG coupling to heavy chain” value is “near quantitative coupling”.

Take `CC[C@@]1(O)C(=O)OCc2c1cc1n(c2=O)Cc2cc3ccccc3nc2-1` [CPT, camptothecin]: the solubility in water result in series [2] is on record as “about 2.5 μg/ml”.

For `CC(=O)O[C@H]1C(=O)[C@@]2(C)[C@H]([C@H](OC(=O)c3ccccc3)[C@]3(O)C[C@H](OC(=O)[C@H](O)[C@@H](NC(=O)c4ccccc4)c4ccccc4)C(C)=C1C3(C)C)[C@]1(OC(C)=O)CO[C@@H]1C[C@@H]2O` [PTX, paclitaxel], the solubility in water entry in series [2] is “less than 1 μg/ml”.

In the case of `NCCCCCNC(=O)c1ccc(-c2c3ccc(=O)cc-3oc3cc(O)ccc23)c(C(=O)O)c1` [cadaverin-fluorescein linker, reference compound], the “BTG coupling to heavy chain” value in series [1] (setting [5]) is reported as “coupling could not be achieved; also recorded: Only partial modification”.

`CN(C)c1cccc2c(S(=O)(=O)NCCCCCN)cccc12` [dansyl-cadaverin, reference compound]: the “BTG coupling to heavy chain” value in series [1] (setting [5]) is reported as “modification of all heavy chains”; in series [1] (setting [7]), “did not go to completion”. The “solubility in aqueous buffer, in words” value in series [3] is given as “limited solubility”.

For biotin-cadaverin [reference compound], the “BTG coupling to heavy chain” value in series [1] (setting [5]) was “modification of all heavy chains”; in series [1] (setting [7]), “did not go to completion”.

With “maleimide-valine-citrullin-PAB-MMAF+6C Thiol Linker [MMAF linker]”, the figures for the “heavy chain with one linker coupled (LC-MS peak)” value in series [1] (setting [6]), in series [1] (setting [8]) and in series [1] (setting [4]) were 30%, 19% and “greater than 90%”, respectively. For the same compound, the entries for the “unmodified heavy chain (LC-MS peak)” value in series [1] (setting [6]) and in series [1] (setting [8]) were 70% and 81%, respectively. For the same compound, the “BTG coupling with prolonged incubation, result in words” value in series [1] (PNGaseF-deglycosylated mAb, 160 eq substrate, 6 U/mL BTGase, 40 h or 110 h, 37° C.) is given as “does not push the reaction to completion”. In series [1] (setting [9]), the “heavy chain with one MMAF linker (LC-MS peak)” value is listed as 75%. For the same compound, the “heavy chain with two MMAF linkers (LC-MS peak)” value in series [1] (setting [9]) came out at 25%. In addition, the “BTG coupling, result in words” value in series [1] (40 eq linker, 4 U/mL or 2 U/mL BTG, 37° C.) is given as “quantitatively functionalized”; in series [1] (80 eq linker, 4 U/ml or 2 U/ml BTG, 37° C.), “complete functionalization”; in series [1] (below 40 eq linker, 4 U/mL or 2 U/mL BTG, 37° C.) it was “no longer quantitative”.
